Read-outs that look alike come from different tables or passages of the source.
Columns and labels:
[1] = Concentration of (poly)phenolic metabolites in fasting urine at baseline, 24 h after single MP beverage and 15th day after 14-day MP intake (UHPLC-QQQ-MS); conditions: for concentration at 15 day / concentration at 0 h / concentration at 24 h: human, urine, oral; for concentration at 0 h / concentration at 24 h: 500 g
Text: The acute trial was a randomized, 3 arm, within-subject crossover study design (Figure 5A). The trial initiated with 3 days of food record collection to assess background (pre-study) dietary intake followed by counseling to adhere to a diet devoid of mango or its parts and relatively low in polyphenol-rich beverages/foods, which was maintained throughout the duration of the trial. […] In general, subjects were encouraged to follow their “usual” diet with the exception of foods/beverages that may interfere with the outcomes of the study. Food intake diaries and, phone call and email reminders helped subjects maintain compliance throughout the study period. After an initial 7-day run-in period on the limited polyphenol diet, subjects were assigned to a randomization sequence providing 1 of 3 study test beverages (recipes provided in Appendix A, Table A3) on three separate days in a random order: MP (500 g), MP (500 g) + VC (100 mg) or VC (100 mg) beverages. On each study day subjects arrived fasted and well hydrated. After standard admission procedures were completed (e.g., review of compliance with dietary requirements for 3 days prior to study day, dinner meal intake, usual sleep patterns), a catheter was placed by a registered nurse in subjects’ non-dominant arm and a fasting/baseline blood sample was collected (0 h). Subjects were provided with a standard breakfast meal 2 h after the study beverages. The breakfast meal was comprised of a buttermilk biscuit with butter and jelly, and scrambled egg white with shredded white cheddar cheese. After the 6 h blood collection, subjects ate a low polyphenol lunch consisting of dry roasted peanuts and fresh peeled cucumber with ranch dressing (Appendix A, Table A3).
Spot urine samples were collected in urine collection cups, immediately placed on ice and then aliquoted into individual cryovials. All the samples were stored at −80 °C until analysis.
A 14-day feeding trial was conducted with the MP only to study the effect of repetitive intake of MP on (poly)phenolic metabolite profiles. Upon completion of the acute trial, subjects were instructed to continue on the low polyphenolic diet for 2 weeks while consuming MP beverages (provided by CNRC) daily in the morning (250 g MP + 50 g water) and evening (250 g MP + 50 g water). On day 14, subjects consumed both beverages (500 g of MP in total) in the morning and reported to the CNRC on the 15th day after an overnight fast to provide a fasting blood and urine sample (Figure 5B). Blood and urine samples were collected as described above and stored at −80 °C until analysis.
The supernatant was collected and filtered through 0.2 µm polypropylene syringe filter before HPLC analysis.
The ESI conditions were the same as those used in the UHPLC-Q-TOF analysis. The quantification of the compounds was conducted by multiple-reaction monitoring (MRM) transitions. Spectra were recorded in both positive- and negative-ion mode with capillary voltage of 4500 V and drying gas flow rate of 9 L/min at 200 °C. The sheath gas temperature and flow rate were 300 °C and 11 L/min, respectively. Standards were optimized for collision energies, fragmentor voltages and MRM transitions using Mass Hunter Optimizer. The MRM transition for metabolites were created based on the results from UHPLC-Q-TOF-MS. Standards for plasma analysis were prepared in blank plasma (charcoal-stripped human plasma obtained from Bioreclamation IVT) for matrix match and for urine analysis were prepared in SMP.
The flow rate was maintained at 0.4 mL/min and the injection volume was 5 μL. The mobile phase consisted of acidified water (0.1% formic acid) (A) and acidified acetonitrile (0.1% formic acid) (B). The gradient for the separation of compounds was as follows: 5 to 5% B from 0 to 1 min; 10% B at 3 min; 15% B at 7 min; 15% B at 9 min; 20% B at 10 min; 20% B at 11 min; 25% B at 12 min; 30% B at 13 min; 30% B at 14 min; 95% B at 15 min; and back to 5% B at 16 min.

clinical = format: in vivo, human; design: AUC0–24h: concentration or dose not given beside the values
Description: SPE procedure was conducted to extract and concentrate the (poly)phenolic compounds and their metabolites from the plasma samples. Briefly, plasma samples were thawed on ice and 500 µL plasma was diluted with 1.5 mL of 0.1% formic acid in water with addition of internal standards (2-methylhippuric acid (2 ng/mL), phloridizin (1 ng/mL)) before being loaded on preconditioned SPE cartridges. The cartridges were washed with 0.1% formic acid in water (1 mL) after loading with plasma samples. The elution of the compounds was achieved by 0.1% formic acid in methanol (1 mL) and the eluent was dried under nitrogen gas at room temperature. […] Supernatant was collected in amber HPLC vials before analysis.
The absorption and elimination of 11 major mango metabolites over 24 h was determined after MP, MP + VC, and VC intake. The plasma concentration/area at each time point was determined by the mean of 13 subjects. The time vs. concentration curves and the time vs. area curves were created using GraphPad Prism (version 8.2.1). […] Tmax is the time (h) when Cmax was achieved. Wilcoxon signed-rank test was used for Tmax analysis due to non-normal distribution. Area under the plasma concentration time curve (AUC0−24h, nmol·h/L) was calculated by the linear trapezoidal method using Microsoft Excel 2013, version 15 [63]. […]

[2] = human plasma, 0−24 h, after VC (vitamin C 100 mg) beverage, mean ± standard error, read-out: Cmax
[3] = human plasma, after VC beverage, mean ± standard error
[4] = human plasma, after MP + VC beverage, mean ± standard error

O=C(O)CCc1cccc(O)c1 [3-Hydroxyphenylpropanoic acid]
Concentration in fasting urine, Mean ± std Error, 0 h (Fasting) ([1]; in vivo): 3.1 ± 0.8 µmol/L | Concentration in fasting urine, Mean ± std Error, 15 Days (Fasting) ([1]; in vivo): 4.4 ± 1.9 µmol/L | Concentration in fasting urine, Mean ± std Error, 24 h (Fasting) ([1]; in vivo): 2.0 ± 0.3 µmol/L

O=C(O)c1ccc(O)cc1 [4-Hydroxybenzoic acid]
concentration at 15 day [1]: 5.4 ± 0.8 µM | concentration at 0 h [1]: 6.1 ± 1 µM | concentration at 24 h [1]: 5.9 ± 0.9 µM

COc1cc(C(=O)O)cc(OC)c1O [Syringic acid]
concentration at 15 day [1]: 1.7 ± 0.2 µM | concentration at 0 h [1]: 3.6 ± 0.4 µM | concentration at 24 h [1]: 5.9 ± 0.8 µM

methylpyrogallol sulfate isomer 2 [Compound C7]
Cmax (clinical; [2]): 76.6 ± 24.9 nM | AUC0–24h (clinical; [3]): 216.6 ± 54.5 nmol·h/L

methylpyrogallol sulfate isomer 1 [Compound C6]
Cmax (clinical; [2]): 35.8 ± 9.5 nM | AUC0–24h (clinical; [3]): 129.5 ± 36.0 nmol·h/L

COc1cc(C(=O)O)ccc1O [Vanillic acid]
concentration at 15 day [1]: 4.1 ± 1 µM | concentration at 0 h [1]: 4.9 ± 0.9 µM | concentration at 24 h [1]: 4.4 ± 0.7 µM

Oc1ccccc1O [Catechol]
concentration at 15 day [1]: 15.1 ± 4 µM | concentration at 0 h [1]: 18.7 ± 12.2 µM | concentration at 24 h [1]: 15.7 ± 4.1 µM

methylgallic acid sulfate [Compound C4]
Cmax (clinical; [2]): 6.3 ± 1.6 nM | AUC0–24h (clinical; [3]): 24.7 ± 3.0 nmol·h/L | AUC0–24h (clinical; human, in vivo): 1655.8 ± 274.0 nmol·h/L | Cmax (clinical; human, in vivo): 824 ± 131 nM | Tmax (clinical; human, in vivo): 2.2 ± 0.2 h | difference in plasma concentrations/areas after MP + VC beverage compared to MP beverage alone (clinical; in vivo): not statistically significant

Cc1ccc(C(=O)NCC(=O)O)cc1 [4-Methylhippuric acid]
Concentration in fasting urine, Mean ± std Error, 0 h (Fasting) ([1]; in vivo): 2.0 ± 1.0 µmol/L | Concentration in fasting urine, Mean ± std Error, 15 Days (Fasting) ([1]; in vivo): 1.2 ± 0.4 µmol/L | Concentration in fasting urine, Mean ± std Error, 24 h (Fasting) ([1]; in vivo): 1.5 ± 0.9 µmol/L

O=C(O)/C=C/c1cccc(O)c1 [m-Coumaric acid]
Concentration in fasting urine, Mean ± std Error, 0 h (Fasting) ([1]; in vivo): 0.8 ± 0.1 µmol/L | Concentration in fasting urine, Mean ± std Error, 15 Days (Fasting) ([1]; in vivo): 0.7 ± 0.1 µmol/L | Concentration in fasting urine, Mean ± std Error, 24 h (Fasting) ([1]; in vivo): 0.7 ± 0.1 µmol/L

O=C(O)[C@H]1O[C@@H](Oc2ccccc2O)[C@H](O)[C@@H](O)[C@@H]1O [Compound C10, catechol glucuronide]
Cmax (clinical; human plasma, 0−24 h, after MP (mango pulp 500 g) beverage, mean ± standard error, n = 13, read-out: Cmax): 472 ± 270 nM | Cmax (clinical; human plasma, 0−24 h, after MP + VC (mango pulp 500 g + vitamin C 100 mg) beverage, mean ± standard error, read-out: Cmax): 186 ± 45.8 nM | Cmax (clinical; [2]): 10.6 ± 3.2 nM | AUC0–24h (clinical; [4]): 483.3 ± 108.0 nmol·h/L | Tmax (clinical; [4]): 8.3 ± 0.4 h | AUC0–24h (clinical; human plasma, after MP beverage, linear trapezoidal method, mean ± standard error): 1830.9 ± 1391.0 nmol·h/L | Tmax (clinical; human plasma, after MP beverage, mean ± standard error): 8.0 ± 0.6 h | AUC0–24h (clinical; [3]): 44.8 ± 5.1 nmol·h/L

COC(=O)CNC(=O)c1ccccc1 [Methyl hippurate]
Concentration in fasting urine, Mean ± std Error, 0 h (Fasting) ([1]; in vivo): 2.8 ± 2.3 µmol/L | Concentration in fasting urine, Mean ± std Error, 15 Days (Fasting) ([1]; in vivo): 6.3 ± 1.7 µmol/L | Concentration in fasting urine, Mean ± std Error, 24 h (Fasting) ([1]; in vivo): 7.8 ± 2.1 µmol/L

O=C(O)c1cc(O)ccc1O [2,5-Dihydroxybenzoic acid]
concentration at 15 day [1]: 7.9 ± 2.7 µM | concentration at 0 h [1]: 6.7 ± 1.6 µM | concentration at 24 h [1]: 4.9 ± 1 µM

O=C(O)/C=C/c1ccc(O)c(O)c1 [Caffeic acid]
Concentration in fasting urine, Mean ± std Error, 24 h (Fasting) ([1]; human fasting urine, 24 h after single-time MP beverage intake): Not detected | concentration at 15 day [1]: 0.1 µM | concentration at 0 h [1]: 0.1 µM

— publication PMC7728344, “Pharmacokinetic Characterization of (Poly)phenolic Metabolites in Human Plasma and Urine after Acute and Short-Term Daily Consumption of Mango Pulp” (Molecules, 2020)
